pIC50: −log10 of the molar value.
Test system: P. aeruginosa (Pseudomonas) biofilm
Test: not given
Conditions: neat IL

| Molecule | anti-biofilm efficacy |
| --- | --- |
| CCCCCCn1cc[n+](C)c1.[Cl-] [LANL-7, 1-Hexyl-3-Methylimidazolium Chloride] | effective |
| choline hexanoate [LANL-13] | effective |

Test system: not listed separately
Test: Determination of lipophilicity (octanol/water distribution by UV absorbance)
Format: physicochemical
Conditions: after extraction with water, Table 3
Protocol: A 250 mL volume of n-octanol was shaken with 100 mL of ddH2O and left overnight. […]
The absorption of the octanol layer and water layers were measured and compared with the absorbance of the stock solutions. Measurements were repeated three times and the distribution coefficients were reported as the average. The percent of IL in octanol was calculated as the absorbance of the octanol layer after extraction divided by the absorbance of IL in octanol before extraction. The water/octanol distribution coefficient was calculated as the logarithm of the percent of IL in octanol divided by the percent of IL in water.

| Molecule | percent in octanol |
| --- | --- |
| CCCCCCn1cc[n+](C)c1.[Cl-] [LANL-7, 1-Hexyl-3-Methylimidazolium Chloride] | 52 +/− 9% |
| choline hexanoate [LANL-13] | 51 +/− 2% |

Same assay, conditions: n-octanol/water; octanol/water, Table 3

| Molecule | logP |
| --- | --- |
| CCCCCCn1cc[n+](C)c1.[Cl-] [LANL-7, 1-Hexyl-3-Methylimidazolium Chloride] | 0.04 |

Test system: not listed separately
Test: Density (volumetric flask and balance)
Format: physicochemical
Conditions: 25° C.
Protocol: (§1) Determinations of conductivity were made on an ION450 benchtop meter (Radiometer Analytical) with a 2-pole electrode designed for use in viscous liquids (Radiometer Analytical CDC241-9) and calibrated with KCl. Conductivity was measured three times per sample on stirred 3 mL volumes of neat IL at 25° C. Density was measured three times per IL using a 1 mL volumetric flask and an analytical balance.

| Molecule | density [g/mL] |
| --- | --- |
| CCCCCCn1cc[n+](C)c1.[Cl-] [LANL-7, 1-Hexyl-3-Methylimidazolium Chloride] | 1.005 |
| choline hexanoate [LANL-13] | 1.01 |

Same assay, conditions: Table 5

| Molecule | density [g/mL] |
| --- | --- |
| CCCCCCn1cc[n+](C)c1.[Cl-] [LANL-7, 1-Hexyl-3-Methylimidazolium Chloride] | 1.01 |
| choline hexanoate [LANL-13] | 1.01 |

Test system: S. enterica (Salmonella) biofilm
Test: not given
Conditions: neat IL

| Molecule | anti-biofilm efficacy |
| --- | --- |
| CCCCCCn1cc[n+](C)c1.[Cl-] [LANL-7, 1-Hexyl-3-Methylimidazolium Chloride] | effective |
| choline hexanoate [LANL-13] | effective |

Test system: not listed separately
Test: Conductivity of neat IL
Format: physicochemical
Conditions: 25° C.
Protocol: as §1

| Molecule | conductivity [mS/cm] |
| --- | --- |
| CCCCCCn1cc[n+](C)c1.[Cl-] [LANL-7, 1-Hexyl-3-Methylimidazolium Chloride] | 0.340 |
| choline hexanoate [LANL-13] | 0.816 |

Same assay, conditions: Table 5

| Molecule | conductivity [mS/cm] |
| --- | --- |
| CCCCCCn1cc[n+](C)c1.[Cl-] [LANL-7, 1-Hexyl-3-Methylimidazolium Chloride] | 0.340 |
| choline hexanoate [LANL-13] | 0.816 |

Same assay, conditions: text b172

| Molecule | conductivity [mS/cm] |
| --- | --- |
| choline hexanoate [LANL-13] | 0.816 |

Test system: not listed separately
Test: Viscosity (Viscolab 3000 viscometer)
Format: physicochemical
Conditions: 25° C.
Protocol: Viscosity was measured on 1 mL samples with a Viscolab 3000 viscometer (Cambridge Viscosity, Medford, MA). […] Low-temperature differential scanning calorimetry (DSC) was performed on a DSC882e instrument (Mettler-Toledo Inc., Columbus, Ohio) under N2 atmosphere over two complete scans of a temperature range of −60 to 120° C. with a ramp rate of 10° C. per minute and a sample size of 18-21 mg in an aluminum crucible.

| Molecule | viscosity [cP] |
| --- | --- |
| CCCCCCn1cc[n+](C)c1.[Cl-] [LANL-7, 1-Hexyl-3-Methylimidazolium Chloride] | 680 |
| choline hexanoate [LANL-13] | 181 |

Same assay, conditions: Table 5

| Molecule | viscosity [cP] |
| --- | --- |
| CCCCCCn1cc[n+](C)c1.[Cl-] [LANL-7, 1-Hexyl-3-Methylimidazolium Chloride] | 679.5 |
| choline hexanoate [LANL-13] | 180.9 |

Test system: not listed separately
Test: Solubility in water (physical characterization)
Conditions: water, 25 °C

| Molecule | solubility [mM] |
| --- | --- |
| CCCCCCn1cc[n+](C)c1.[Cl-] [LANL-7, 1-Hexyl-3-Methylimidazolium Chloride] | 700 |

Test system: Normal human bronchial epithelial (NHBE) cells
Test: WST-1 proliferation assay, 24 h exposure to diluted ILs
Conditions: not given
Protocol: Normal human bronchial epithelial (NHBE) cells were purchased (Lonza, Walkersville, MD) and cultured using bronchial epithelial cell growth media (BEGM, Clonetics Bullet Kit, Lonza, Walkersville, MD) on 100 mm tissue culture treated Petri dishes (Santa Cruz Biotechnologies, Santa Cruz, CA) coated with 50 μg/mL type I rat tail collagen (BD Biosciences, Bedford, MA). Cells were stored in an incubator with a humidified atmosphere at 37° C. and 5% CO2. Cells were fed two times weekly and passaged via trypsinization. Experimentation was performed in triplicate on cells harvested from passages 3 to 7.
NHBE cells were plated in 96-well tissue culture plates at a concentration of 1.5×10^4 cells/well in a volume of 200 μL and allowed to acclimate overnight. On the day of experimentation, treatment plates were prepared using stock ionic liquid diluted in BEGM and then serially diluted 3-fold for a total of 7 concentrations. The 96-well plates containing cells were then aspirated and the treatments (150 μL/well) were carefully transferred from the prep plate to the cells. Cells were exposed to the ionic liquids for 24 hours. Two hours prior to the end of the exposure time, positive control cell wells were aspirated, and a solution of 1% Triton-100 (150 μL/well) was added.
To assess cellular proliferation, water-soluble tetrazolium (WST-1) reagent (Clontech, Mountain View, CA) was added directly to cells, at a 1:10 dilution of the remaining media volume (7.5 μL of WST-1 reagent was added per 75 μL remaining cell culture media). NHBE cells exposed to media only and 1% Triton in BEGM were included as controls. Ionic liquid controls at the highest concentrations tested were included in wells without cells to rule out ionic liquid/assay reagent interference.

| Molecule | toxicity to human primary cells |
| --- | --- |
| choline hexanoate [LANL-13] | low toxicity |

Same assay, conditions: Homo sapiens, NHBE

| Molecule | pIC50 |
| --- | --- |
| CCCCCCn1cc[n+](C)c1.[Cl-] [LANL-7, 1-Hexyl-3-Methylimidazolium Chloride] | 2.00 |

Same assay, conditions: Homo sapiens, NHBE, 24 h, read-out: IC50 at 24 h

| Molecule | pIC50 |
| --- | --- |
| CCCCCCn1cc[n+](C)c1.[Cl-] [LANL-7, 1-Hexyl-3-Methylimidazolium Chloride] | 2.00 |

Same assay, conditions: solubilized in culture medium

| Molecule | toxicity to human primary cells |
| --- | --- |
| CCCCCCn1cc[n+](C)c1.[Cl-] [LANL-7, 1-Hexyl-3-Methylimidazolium Chloride] | low toxicity |

Test system: porcine skin
Test: Skin transport of 3H-Mannitol in Franz diffusion cell
Format: in vitro ADME
Conditions: 3H-Mannitol, 24 hr, 37° C.
Protocol: FIG. 1 is a schematic of the skin transport experiment set-up and analysis. Porcine skin was loaded into the Franz diffusion cell (FDC) with the stratum corneum (SC) facing up. Skin was incubated in contact with 3H-labeled drug dissolved in donor solution for 24 hrs, at 37° C., with stirring. After 24 hrs the donor solution was removed and skin thoroughly washed. The SC was separated from the epidermis by tape stripping. Ten tape strips were applied, each tape corresponding to 1 “layer” of SC. Ten tape strips were assumed to remove the entire SC. Epidermis was separated from dermis using a razor blade. Acceptor solution was collected, and drug transport into various tissue layers was quantified by scintillation counter.
3H-labeled Mannitol and Cefadroxil were obtained from American Radiolabeled Chemicals, Inc. and Moravek, respectively. FDCs were used to assess the transport enhancement of ionic liquids using a previously established protocol. Karande, et al., “Discovery of transdermal penetration enhancers by high-throughput screening”, Nat Biotechnol, 22(2): 192-7 (2004). Briefly, the acceptor chamber was filled with degassed PBS and a small stir bar added. Thawed porcine skin was clamped in place between the acceptor and donor chambers with the SC facing up. Care was taken to ensure no air bubbles resided in the acceptor chamber. Ionic liquids or PBS (control) were spiked with 3H-labeled drug (Mannitol and Cefadroxil) to a final concentration of 10 μCi/ml. 300 μL of donor solution was added to the donor chamber and incubated in contact with the SC for 24 hr, at 37° C., with stirring.
After 24 hr, the donor solution was removed, and the skin was thoroughly washed and dried.
SC was separated from epidermis by tape stripping. Ten tape strips were performed in an identical fashion, with each tape corresponding to 1 SC “layer”. Ten strips were assumed to remove the majority of the SC. Epidermis was separated from dermis with a razor blade, and the acceptor solution was collected from the acceptor chamber. Samples from each tissue layer and acceptor solution were dissolved in Soluble (Perkin Elmer, Waltham, MA) overnight and the concentration of radiolabeled solute was measured using a scintillation counter (Packard Tri-Carb 2100 TR, Meriden, CT).

| Molecule | drug permeation into the SC |
| --- | --- |
| choline hexanoate [LANL-13] | inhibited drug permeation into the SC |

Test system: not listed separately
Test: Calculations of molarity and ionic strength
Format: physicochemical
Conditions: neat IL, Table 5

| Molecule | ionic strength [M] | molarity [M] |
| --- | --- | --- |
| CCCCCCn1cc[n+](C)c1.[Cl-] [LANL-7, 1-Hexyl-3-Methylimidazolium Chloride] | 4.96 | 4.96 |
| choline hexanoate [LANL-13] | 3.02 | 3.02 |

Source: US11786597B2, “Ionic liquids for transdermal drug delivery” (priority 2013, dated 2023)
